Residues, ends and D or L forms follow the SMILES beside them. *: point of attachment. Boc = CC(C)(C)OC(=O)*; Bn = c1ccc(C*)cc1
Row | Structure (SMILES) | melting point
1 | CC(C)OC(=NC(=O)c1ccc(F)cc1)N1Cc2ccccc2-c2ccccc2C1 | 90 to 93 °C
2 | CC(C)CC(NC(=O)C(Cc1ccc(OCc2ccccc2)cc1)NC(=O)OC(C)(C)C)C(=O)O (stereo not drawn) (Boc-Tyr(Bn)-Leu-OH; configuration not given here) | 90 to 94 °C
3 | CC(C)(C)c1cc(N(C(=O)CCC(=O)O)c2cccc(C(=O)O)c2)cc(C(C)(C)C)c1O | 182 to 183 °C
4 | CCOC(=O)CC(NC(=O)c1cccc(NC(=O)c2csc(NC(=N)N)n2)c1)c1ccccc1 (racemic) | 117 °C
5 | O=C1Cc2cccc(Oc3ccccn3)c2N1 | 187 to 191 °C
6 | CC(C)Oc1ccc2ccc(N)nc2n1 | 170 °C
7 | O=C(Nc1ccc(C(=O)N2C[C@@H]3C[C@H](O)CN3c3ccccc32)cc1)c1ccccc1-c1ccccc1 | 164 to 165 °C
8 | COc1cc2c(cc1OC)C(Oc1ccc(Cl)cc1)CN(C)C2 (stereo not drawn) | 112 to 115 °C
9 | Cc1ccc(-c2ccc(S(C)(=O)=O)cc2)n1-c1ccc(-c2ccco2)c(Cl)c1 | 127 to 131 °C
10 | CN1C2CCC1CN(c1ccc(-c3ccccc3)nn1)C2 | 151 °C
11 | Fc1ccc(-c2cc(N3CCC(c4ncc[nH]4)CC3)c3sccc3n2)cc1 | 95 °C
12 | C=C1CCC2C3CCc4cc(O)ccc4C3CCC12C (stereo not drawn) | 134 to 136 °C
13 | COC(=O)CCc1cc(C(=O)c2cccc(C(=O)OC)n2)ccc1OCCCC/C=C/c1ccc(OC)cc1 | 80 to 82 °C
14 | CC(O)(CCO)c1ccc(-c2ccc(F)cc2F)cc1 (stereo not drawn) | 82 to 84 °C
15 | N#CCCC(C#N)CSc1ccc(Cl)c(Cl)c1 (stereo not drawn) | 53 to 55 °C
16 | CC(C)Oc1ccc(-c2nc(=O)c3ccccc3s2)cn1 | 110 °C
17 | N#Cc1cc(NC(=O)c2cc3ccccc3s2)ccc1N1CCN(CCO)CC1 | 238 to 239 °C
18 | Nc1ccc2ccc(OCc3ccc4ccccc4n3)cc2c1 | 164 to 166 °C
19 | CC(=O)NCCCC(=O)NCCCC(=O)c1ccc(Cl)cc1CCC(=O)O | 108 °C

Row | Structure (SMILES) | melting point
20 | Cc1ncc2cc(-c3c(Cl)cccc3Br)c(N)nc2n1 | 272 to 274 °C
21 | CCCCCCc1cc(C(=O)O)c(N)s1 | 80 to 81 °C
22 | N#Cc1ccc(NC(=O)c2cc3cccc(S(=O)(=O)c4ccccc4)c3[nH]2)c(-c2nnn[nH]2)c1 | 293 to 295 °C
23 | CCCC(C)(C)C(=O)NC1CCCNC(=O)C1 (stereo not drawn) | 84 to 85 °C
24 | CC(n1ncn(-c2ccc(N3CCN(c4ccc(O)cc4)CC3)cc2)c1=O)C(F)(F)F (stereo not drawn) | 215 °C
25 | Cc1cccc(COc2cccc(OCc3nc(-c4ccccc4)oc3C)c2)c1C(=O)O | 144 to 145 °C
26 | COc1ccc2ccc(O)c(C3NCCc4ccccc43)c2c1 (stereo not drawn) | 126 to 130 °C
27 | CCCn1c(=S)[nH]c2ccsc2c1=O | > 230 °C
28 | Nc1ccc(CN2CCSC2)cc1 | 73 to 74 °C
29 | S=C(NCCCN1CCCC1)NCCN(Cc1ccc(Cl)c(Cl)c1)c1ccc(Br)cn1 | 123 to 125 °C
30 | CCCCCCOc1cc(-c2cccc([N+](=O)[O-])c2)c(OCCCCCC)cc1-c1cccc([N+](=O)[O-])c1 | 126 to 127 °C
31 | COc1cc(N2CCC(N3CCN(C(=O)OCc4ccccc4)CC3)CC2)ccc1Nc1ncc2ccc(-c3ccccc3OC)n2n1 | 75 to 76 °C
32 | CC1NC(=Nc2ccccc2N2CCOCC2)N(CCO)C1C (stereo not drawn) | 108 to 109 °C
33 | CCCCOCC(O)COc1ccc(-c2nc(-c3ccc(C)cc3C)nc(-c3ccc(C)cc3C)n2)c(O)c1 (stereo not drawn) | 80 to 83 °C
34 | Nc1nc2nc(-c3ccccc3)[nH]c2c2ncnn12 | > 350 °C
35 | OC1CSC(Oc2cnccc2-c2ccc(C(F)(F)F)cc2)C(O)C1O (stereo not drawn) | 204 °C
36 | O=C(NC1CCN(CCCc2ccc(F)cc2)C1)C12CC3CC(CC(C3)C1)C2 (stereo not drawn) | 114 to 115 °C
37 | Cn1cncc1C(O)(c1ccc(Cn2cnnn2)cc1)c1ccc2c(c1)c(-c1cccc(Cl)c1)cc(=O)n2C (stereo not drawn) | 160 °C
38 | CCOC(=O)C1COc2ccc(Cl)c(Cl)c2O1 (stereo not drawn) | 92 to 94 °C

— a melting point compilation (Tetko et al.; mined from patent text by program, amines drawn as free bases though some values may be those of a salt)
